pIC50: −log10 of the molar value.
Molecular target: T1, CSBP/p38 (Homo sapiens, UniProt Q16539)
T1 construct: made in house; host or cells: yeast
Assay: CSBP/p38 Kinase Assay
Format: biochemical
Details: 32P transfer from ATP to EGFR-derived peptide T669; yeast-expressed, activated p38; 0.17 mM ATP; "this binding assay or a similar assay"; read-out: IC50 (positive inhibitory activity)
Description: This assay measures the CSBP/p38-catalyzed transfer of ^32p from [a−^32P]ATP to threonine residue in an epidermal growth factor receptor (EGFR)-derived peptide (T669) with the following sequence: […] (residues 661-681). (See Gallagher et al., “Regulation of Stress Induced Cytokine Production by Pyridinyl Imidazoles: Inhibition of CSBP Kinase”, BioOrganic & Medicinal Chemistry, 1997, 5, 49-64).
Reactions were carried in round bottom 96 well plate (from Coming) in a […] volume. Reactions contained (in final concentration): 25 mM Hepes, pH 7.5; 8 mM MgCl2; 0.17 mM ATP (the Km[ATP] of p38 (see Lee et al., Nature 300, n72 pg. 639-746 (December 1994)); 2.5 uCi of [g-32P]ATP; 0.2 mM sodium orthovanadate; 1 mM DTT; 0.1% BSA; 10% glycerol; 0.67 mM T669 peptide; and 24 nM of yeast-expressed, activated and purified p38. Reactions were initiated by the addition of [gamma-32P]Mg/ATP, and incubated for 25 min. at 37° C. Inhibitors (dissolved in DMSO) were incubated with the reaction mixture on ice for 30 minutes prior to adding the 32P-ATP. Final DMSO concentration was 0.16%. Reactions were terminated by adding 10 ul of 0.3 M phosphoric acid, and phosphorylated peptide was isolated from the reactions by capturing it on p81 phosphocellulose filters. Filters were washed with 75 mM phosphoric acids, and incorporated 32P was quantified using beta scintillation counter. […]

T1 sequence (Q16539 whole entry): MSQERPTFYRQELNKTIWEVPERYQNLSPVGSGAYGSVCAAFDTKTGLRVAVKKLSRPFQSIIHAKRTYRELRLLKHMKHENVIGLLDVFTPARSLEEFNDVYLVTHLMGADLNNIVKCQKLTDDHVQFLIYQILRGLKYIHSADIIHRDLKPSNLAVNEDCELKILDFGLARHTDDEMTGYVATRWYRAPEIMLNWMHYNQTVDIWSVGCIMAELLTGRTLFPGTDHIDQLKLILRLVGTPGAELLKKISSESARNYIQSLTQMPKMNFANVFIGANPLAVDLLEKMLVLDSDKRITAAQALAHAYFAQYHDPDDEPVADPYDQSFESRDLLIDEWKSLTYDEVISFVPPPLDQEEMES

SMILES: O=C1NCc2cc(Nc3ccccc3)ccc2N1c1ccccc1 [Example 1, 1-Phenyl-2-oxo-3.4-dihydro-6-phenylaminoquinazoline]
- pIC50: > 4.30

— patent US6982270B1, “3,4-dihydro-(1H)quinazolin-2-one compounds as CSBP/p38 kinase inhibitors” (SmithKline Beecham Corporation, priority 1999, dated 2006)
